The record followed here is ChEMBL document CHEMBL1201862, “PubChem BioAssay data set” (2004).

The structures appear in SMILES notation.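 In this assay, cells in 96-well plates receive the compound at five concentrations for 48 hours. Endpoints are linearly interpolated between the surrounding concentrations. The concentration for 50% growth inhibition is given as GI50.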 Active and inactive are the calls of the source. Rule as the data show it: active = GI50 up to about 1.1 µM and inactive = higher.

Test systems include CCRF-CEM; M14; SK-MEL-2; DU-145; SK-OV-3; A549; HOP-92; HOP-62; LOX IMVI; A498; ACHN; SK-MEL-5; MDA-N; SR; OVCAR-3; Malme-3M; SK-MEL-28; SF-268; CAKI-1; UO-31.
Holding throughout (test): NCI anticancer screen, dose series, 48 h

Consider `COc1cc(Nc2ccc3c(c2)CCC3)nc(OC)n1`, for which the GI50 with CCRF-CEM is 49.7 µM (inactive); in the test with M14 it was 43.3 µM (inactive); in the test with SK-MEL-2 it was 33 µM (inactive); with DU-145, 53 µM (inactive); in the test with SK-OV-3, 50 µM (inactive); with A549, 26.5 µM (inactive). The GI50 in the test with HOP-92 is 32.4 µM (inactive); in the test on HOP-62, 54.6 µM (inactive); with LOX IMVI it was 45.7 µM (inactive); in the test on A498 it was 24.3 µM (inactive); in the test on ACHN, 28.2 µM (inactive); in the test with SK-MEL-5, 23.9 µM (inactive). Also, the GI50 is 26.1 µM (inactive) in the test on MDA-N; 20.5 µM (inactive) with SR; 46.1 µM (inactive) with OVCAR-3; 32.1 µM (inactive) in the test with Malme-3M; > 100 µM (inactive) with SK-MEL-28; 23.9 µM (inactive) in the test on SF-268. The GI50 in the test with CAKI-1 was 37.9 µM (inactive).
Consider `O=c1c2ccccc2nc(-c2cccc([N+](=O)[O-])c2)n1O`, for which the GI50 in the test with M14 was 50.8 µM (inactive); with SK-MEL-2, 22.6 µM (inactive); in the test on DU-145, > 100 µM (inactive); in the test with SK-OV-3 it was 42.8 µM (inactive); in the test on A549, 34.9 µM (inactive); in the test with HOP-92 it was 3.94 µM (inactive). In addition, the GI50 in the test with HOP-62 is 49 µM (inactive); in the test with LOX IMVI, 27.2 µM (inactive); with A498, > 40.7 µM (inactive); in the test on ACHN, 38.5 µM (inactive); in the test with SK-MEL-5, 32.7 µM (inactive); with MDA-N, 43.4 µM (inactive). In addition, the GI50 with SR is > 100 µM (inactive); in the test with OVCAR-3 it was 31.6 µM (inactive); with Malme-3M, > 80 µM (inactive); in the test with SK-MEL-28, > 100 µM (inactive); in the test with SF-268 it was 34.4 µM (inactive); in the test with CAKI-1, 40.7 µM (inactive). Further, the GI50 in the test on UO-31 is 33.7 µM (inactive).
`COc1ccc(/C=C2\CN(C)C/C(=C\c3ccc(OC)c(OC)c3OC)C2=O)c(OC)c1OC`: the GI50 in the test on CCRF-CEM was 0.019 µM (active); with M14, 0.073 µM (active); in the test with SK-MEL-2, 0.363 µM (active); with DU-145, 0.333 µM (active); in the test on SK-OV-3 it was 0.586 µM (active); in the test on A549, 0.294 µM (active). In addition, the GI50 in the test on HOP-92 was 0.617 µM (active); in the test with HOP-62, 0.294 µM (active); in the test with LOX IMVI, 0.115 µM (active); in the test with A498 it was 0.146 µM (active); in the test on ACHN, 0.218 µM (active); with SK-MEL-5, 0.259 µM (active). Further, the GI50 in the test with MDA-N was 0.0968 µM (active); with SR, 0.0658 µM (active); in the test on OVCAR-3, 0.11 µM (active); in the test with Malme-3M, 0.171 µM (active); in the test on SK-MEL-28, 0.147 µM (active); in the test with SF-268, 0.164 µM (active). Moreover, in the test with CAKI-1, the GI50 is 0.485 µM (active).
For `Cc1nnc(-n2c(O)cc(=O)n(-c3ccccc3)c2=S)nc1/C=C/c1ccc(N(C)C)cc1`, the GI50 in the test with CCRF-CEM is 8.2 µM (inactive); in the test on M14 it was 13.7 µM (inactive); in the test on SK-MEL-2, 10.9 µM (inactive); with DU-145, 26.1 µM (inactive); with SK-OV-3, 11.7 µM (inactive); in the test on A549 it was 8.63 µM (inactive). The GI50 in the test with HOP-92 was 21.5 µM (inactive); with HOP-62, 5.86 µM (inactive); in the test on LOX IMVI it was 4.32 µM (inactive); in the test on A498, 27.1 µM (inactive); with ACHN, 9.23 µM (inactive); in the test with SK-MEL-5 it was 3.58 µM (inactive). Also, the GI50 was 9.25 µM (inactive) with MDA-N; 5.02 µM (inactive) with SR; 2.69 µM (inactive) in the test with Malme-3M; 18.5 µM (inactive) in the test with SK-MEL-28; 22.4 µM (inactive) in the test on SF-268; 5.7 µM (inactive) in the test with CAKI-1. For the same compound, in the test with UO-31, the GI50 was 4.11 µM (inactive).
In the case of `Cc1sc2nc(-c3ccc(Cl)c([N+](=O)[O-])c3)c(/C=N/NC(=N)N)n2c1C`, the GI50 in the test on M14 was 1.53 µM (inactive); in the test on SK-MEL-2 it was 1.32 µM (inactive); with DU-145 it was 1.93 µM (inactive); in the test on SK-OV-3, 1.75 µM (inactive); in the test with A549 it was 1.62 µM (inactive); in the test with HOP-92, 1.4 µM (inactive). Also, the GI50 in the test with HOP-62 was 0.471 µM (active); in the test with LOX IMVI it was 0.585 µM (active); with A498, 1.66 µM (inactive); in the test on ACHN it was 1.46 µM (inactive); in the test with SK-MEL-5, 1.53 µM (inactive); with MDA-N, 0.893 µM (active). In addition, the GI50 is 0.229 µM (active) in the test with SR; 1.69 µM (inactive) with OVCAR-3; 2 µM (inactive) with Malme-3M; 0.973 µM (active) in the test on SK-MEL-28; 1.85 µM (inactive) in the test on SF-268; 1.62 µM (inactive) with CAKI-1. Also, the GI50 in the test with UO-31 was 1.65 µM (inactive).
Regarding `O=C(Cc1cc(=O)oc2cc(O)ccc12)N/N=C/c1ccc(N(CCCl)CCCl)cc1`, the GI50 with CCRF-CEM was 15 µM (inactive); with M14 it was 19.5 µM (inactive); in the test with SK-MEL-2, > 100 µM (inactive); in the test on DU-145, 19.6 µM (inactive); in the test with A549, 16.1 µM (inactive); with HOP-92, 20.8 µM (inactive). Further, the GI50 with HOP-62 is 23.7 µM (inactive); with LOX IMVI, 16.6 µM (inactive); with A498, 22.3 µM (inactive); with ACHN it was 15.8 µM (inactive); in the test with SK-MEL-5 it was 14.6 µM (inactive); in the test with MDA-N it was 23.4 µM (inactive). Besides, the GI50 with SR was 14.2 µM (inactive); with OVCAR-3, 18.2 µM (inactive); with Malme-3M, 20.5 µM (inactive); in the test on SK-MEL-28, 15.1 µM (inactive); in the test with SF-268, 13.4 µM (inactive); with CAKI-1, 12.7 µM (inactive). In the test on UO-31, the GI50 is 22.2 µM (inactive).
In the case of `CN(C)CCc1c2c(nc3ccccc13)C(=O)c1cccnc1C2=O`, the GI50 was 0.682 µM (active) with CCRF-CEM; 0.102 µM (active) with M14; 1.17 µM (inactive) in the test on SK-MEL-2; 0.126 µM (active) with DU-145; 0.479 µM (active) in the test with SK-OV-3; 1.24 µM (inactive) with A549. Besides, the GI50 with HOP-92 was 1.49 µM (inactive); with LOX IMVI it was < 0.0476 µM (active); in the test on A498 it was 0.597 µM (active); with ACHN, 0.084 µM (active); in the test on SK-MEL-5 it was 0.177 µM (active); in the test on MDA-N it was 0.352 µM (active). For the same compound, the GI50 in the test with SR is 0.0456 µM (active); in the test on OVCAR-3, 0.0513 µM (active); in the test with Malme-3M, 0.49 µM (active); with SK-MEL-28, 0.492 µM (active); in the test with SF-268, 0.238 µM (active); in the test with CAKI-1, 0.582 µM (active). In addition, the GI50 in the test on UO-31 is 0.197 µM (active).
In the case of `Nc1ccc2nc(-c3ccccn3)c(-c3ccccn3)nc2c1`, the GI50 in the test with CCRF-CEM, in the test on M14, with SK-MEL-2, in the test with DU-145, in the test on A549 and in the test with HOP-92 was > 100 µM (inactive) each time. Further, the GI50 in the test on LOX IMVI, in the test with A498, in the test with ACHN, in the test with SK-MEL-5, with MDA-N and in the test with SR was > 100 µM (inactive) each time. Besides, the GI50 in the test on OVCAR-3, with Malme-3M, with SK-MEL-28, with SF-268, in the test on CAKI-1 and in the test on UO-31 was > 100 µM (inactive) each time.
In the case of `COC12CCCN1c1ccn(Cc3ccccc3)c(=O)c1C2=O` (stereo not drawn), the GI50 was 82 µM (inactive) with CCRF-CEM; > 100 µM (inactive) in the test with M14; > 100 µM (inactive) in the test on SK-MEL-2; > 100 µM (inactive) with DU-145; > 100 µM (inactive) in the test on SK-OV-3; > 100 µM (inactive) in the test on A549. Moreover, the GI50 in the test with HOP-92, in the test on LOX IMVI, with A498, in the test on ACHN, with SK-MEL-5 and with MDA-N was > 100 µM (inactive) throughout. Further, the GI50 in the test on SR, with OVCAR-3, in the test on Malme-3M, with SK-MEL-28, in the test with SF-268 and in the test with CAKI-1 was > 100 µM (inactive) each time. For the same compound, the GI50 in the test on UO-31 is > 100 µM (inactive).
Consider `Cc1ccc2c(c1C)C(=O)/C(=C/c1cccc(C)c1C(=O)O)C2`, for which the GI50 with CCRF-CEM is 50.7 µM (inactive); with M14, 63.2 µM (inactive); in the test with SK-MEL-2 it was > 83.6 µM (inactive); with DU-145, > 100 µM (inactive); in the test with SK-OV-3 it was 59.8 µM (inactive); in the test with A549, 79.6 µM (inactive). The GI50 was 19.2 µM (inactive) in the test with HOP-92; > 55.7 µM (inactive) in the test with HOP-62; 44.1 µM (inactive) with LOX IMVI; > 45.1 µM (inactive) in the test on A498; 72.3 µM (inactive) in the test with ACHN; 38.9 µM (inactive) in the test on SK-MEL-5. The GI50 is > 80.5 µM (inactive) with MDA-N; > 60.5 µM (inactive) in the test with SR; 71.6 µM (inactive) in the test with OVCAR-3; 71 µM (inactive) in the test on Malme-3M; 79.3 µM (inactive) in the test with SK-MEL-28; > 91.4 µM (inactive) in the test with SF-268. The GI50 in the test with UO-31 was 2.2 µM (inactive).
On to `CN(C)CCn1nc(N)c2nc3cc(C(F)(F)F)ccc3nc21`, for which the GI50 with CCRF-CEM was 79.3 µM (inactive); with M14, > 100 µM (inactive); in the test with SK-MEL-2, > 100 µM (inactive); in the test with DU-145, 54.8 µM (inactive); in the test with SK-OV-3, > 100 µM (inactive); with A549 it was 58.2 µM (inactive). The GI50 was 79.4 µM (inactive) with HOP-92; 57.4 µM (inactive) in the test on HOP-62; 54.8 µM (inactive) in the test on LOX IMVI; > 100 µM (inactive) in the test with A498; > 100 µM (inactive) with ACHN; > 100 µM (inactive) with SK-MEL-5. Besides, the GI50 is > 100 µM (inactive) with MDA-N; > 100 µM (inactive) in the test with SR; > 100 µM (inactive) in the test with Malme-3M; > 100 µM (inactive) in the test on SK-MEL-28; 94.6 µM (inactive) in the test with SF-268; 90.2 µM (inactive) with CAKI-1. Besides, the GI50 with UO-31 was 31.3 µM (inactive).
